This is an account of results in patent EP0011400A1, “An aminoglycosidic antibiotic salt” (priority 1978, dated 1980).

Counter-ions that a name gives are not always drawn.

Data set [1] concerns Male Hartley guinea pigs. Put plainly: Example 8: toxicity of tobramycin and bekanamycin salts on intramuscular injection (deaths, pinna reflex). The format is in vivo. Particulars: for Pinna Reflex Lost: * including dead cases; for Number died/ Number tested: guinea pigs, intramuscular. As to the method: The second group was injected with a solution of tobramycin sulfate in water for injection in an equal dose. […] After injection with the final dose, the pinna reflex of each subject guinea pig to a pure tone having a frequency of 15,000 Hz was determined. […] Both group were then subjected to determination of their pinna reflex to a 15,000^-Hz pure tone.

The subject of data set [2] is Male Hartley guinea pigs. Put plainly: Example 7: toxicity of dibekacin salts on intramuscular injection for 21 days (deaths, pinna reflex, BUN). The format is in vivo. To be noted: for Number of guinea pigs which lost pinna reflex 10days / Number of guinea pigs which lost pinna reflex 14days / Number of guinea pigs which lost pinna reflex 17days / Number of guinea pigs which lost pinna reflex 21days: 180 mg (as a free base)/kg/day intramuscular, 20,000 Hz pure tone; for Number of guinea pigs which lost pinna reflex 21days: * including dead cases; for Number died/ Number tested: guinea pigs, intramuscular, 21 consecutive days; for Number died/ Number tested / BUN: 180 mg (as a free base)/kg/day; for BUN: sera, 24 hours after final dose; for Number of guinea pigs which lost pinna reflex 21days / BUN: 21 days. Here is the method: The second group was injected with an equal dose of a solution of dibekacin sulfate in water for injection. […] During the intramuscu]ar injection, the pinna reflex of each subject guinea pig to a pure tone having a frequency of 20,000 Hz was determined. Twenty-four hours after the injection with the final dose, the level of BUN in sera was measured.

For data set [3], the system named is Pseudomonas aeruginosa E-2. Put plainly: Example 10: survival of mice infected intraperitoneally. The format is in vivo. To be noted: ICR-JCL mice, intramuscular; for Percentage Survival (%) Dosage 0.0625 mg: 0.0625 mg (as a free base)/mouse; for Percentage Survival (%) Dosage 0.0625 mg / Percentage Survival (%) Dosage 0.25 mg / Percentage Survival (%) Dosage 1 mg: one week after the injection; for Percentage Survival (%) Dosage 1 mg: 1 mg (as a free base)/mouse; for ED50: Pseudomonas aeruginosa, E2, im, 168 h, calculated by Ritchfield-Wilcoxon technique, the two values not significantly different. As to the method: The second group was injected with a solutio of dibekacin sulfate in sterile physiological saline solution in the above indicated doses. […] The percentage survival of each group was checked one week after the injection.

The nature of data set [4]: Solubility of the salt powder in water and organic solvents. The format is physicochemical.
Data set [5] deals with Male Hartley guinea pigs. In words: Example 9: toxicity of kanamycin A salts on intramuscular injection for 14 days (deaths, pinna reflex, BUN). The format is in vivo. Particulars: 400 mg (as a free base)/kg/day, 14 consecutive days. As to the method:
The second group was injected with a solution of kanamycin A sulfate in water for injection in an equal dose. The third group was injected with a solution of a mixture of kanamycin A sulfate and potassium salt of D-glucaro-1,5-lactam (in a molar ratio of […]) in water for injection in an eaual dose.

In data set [6] the test system is Male Hartley guinea pigs. Put plainly: Example 11: pinna reflex after intramuscular injection of gentamicin salts for 21 days. Particulars: 80 mg (as a free base)/kg/day, 20,000 Hz pure tone after final dose.
Method: Male Hartley guinea pigs weighing 300 g on average were used as the test animals in three groups each consisting of 6 guinea pigs which were subjected to intramuscular injection of the following substances for 21 consecutive days. The first group was injected with a solution of the salt of gentamicin and D-glucaro-1,5-lactam in water for injection in a dose of 80 mg (as a free base)/kg/day. The second group was injected with a solution of gentamicin sulfate in water for injection in an equal dose. The third group was a control which was injected with distilled water.
Data set [7] deals with Male Hartley guinea pigs. Put plainly: Example 6: toxicity of gentamicin salts on intramuscular injection for 14 days (deaths, pinna reflex, BUN, CRE). The class given is in vivo. Particulars: 100 mg (as a free base)/kg/day; for CRE: creatine in sera; for CRE / BUN: 24 hours after the pinna reflex determination; for Number died/ Number tested: 14 consecutive days; for BUN: sera. Here is the method: The amount of the test compounds administered was calculated on the basis of the free base (i.e., free gentamicin). […] The second group was injected with an equal dose of a solution of gentamicin sulfate in water for injection. […] After injection with the final dose, each group was subjected to a pure tone having a frequency of 20,000 Hz to determine the pinna reflex of the subject guinea pigs. Twenty-four hours after the determination, the levels of blood urea nitrogen (BUN) and creatine (CRE) in sera were measured.

The nature of data set [8]: pH of an aqueous solution of the salt. The format is physicochemical.
Setting [9] is: 250 mg (as a free base)/kg/day, 14 days, 15,000 Hz pure tone.
Where [10] appears, read: 250 mg (as a free base)/kg/day, 14 consecutive days.
Where [11] appears, read: 120 mg (as a free base)/kg/day, 16 days, 15,000 Hz pure tone after final dose.
Where [12] appears, read: guinea pigs, intramuscular, 14 days, 20,000 Hz pure tone after final dose.

For `NC[C@H]1O[C@H](O[C@H]2[C@H](O)[C@@H](O[C@H]3O[C@H](CO)[C@@H](O)[C@H](N)[C@H]3O)[C@H](N)C[C@@H]2N)[C@H](N)[C@@H](O)[C@@H]1O` [Bcanamycin sulfate, bekanamycin sulfate], in the data set on Male Hartley guinea pigs [1] (setting [9]), the “Pinna Reflex Dull” value is reported as 1/4 and the “Pinna Reflex Lost” value was 3/4*. Further, the “Number died/ Number tested” value in the data set on Male Hartley guinea pigs [1] (setting [10]) is 2/6.
Consider `NCC1CCC(N)C(OC2C(N)CC(N)C(OC3OC(CO)C(O)C(N)C3O)C2O)O1` (stereo not shown) [Dibekacin sulfate, dibekacin sulfate, reference compound], for which, in the data set with Male Hartley guinea pigs [2], the “Number of guinea pigs which lost pinna reflex 10days” value is reported as 0/6, the “Number of guinea pigs which lost pinna reflex 14days” value was 3/6, the “Number of guinea pigs which lost pinna reflex 17days” value is given as 3/6 and the “Number of guinea pigs which lost pinna reflex 21days” value is 5/6*. Further, in the data set on Male Hartley guinea pigs [2], the “Number died/ Number tested” value is reported as 1/6 and the BUN was determined as 41.8 ± 26.9 mg/dL. For the same compound, in data set [3], the “Percentage Survival (%) Dosage 0.0625 mg” value is on record as 0%; the “Percentage Survival (%) Dosage 0.25 mg” value was determined as 30%; the “Percentage Survival (%) Dosage 1 mg” value was determined as 100%; the ED50 (as a rule, the dose at which the effect has come halfway, by size or by number of responders) was 15.7 mg/kg.
Turning to `NC[C@H]1O[C@H](O[C@H]2[C@H](O)[C@@H](O[C@H]3O[C@H](CO)[C@@H](O)[C@H](N)[C@H]3O)[C@H](N)C[C@@H]2N)[C@H](N)[C@@H](O)[C@@H]1O` [Glucarolactam salt of bekanamycin, Salt of bekanamycin and D-glucaro-1,5-lactam], in the data set on Male Hartley guinea pigs [1] (setting [9]), the “Pinna Reflex Dull” value is reported as 3/6 and the “Pinna Reflex Lost” value is 3/6. For the same compound, the “Number died/ Number tested” value in the data set with Male Hartley guinea pigs [1] (setting [10]) is listed as 0/6. Moreover, in data set [4], the “solubility in ethanol, acetone, ethyl acetate and chloroform” value (shortened to “solubility in ethanol, acetone”) is “very slightly soluble”; the solubility in water result is “freely soluble”.
Turning to `NC[C@@H]1CC[C@@H](N)[C@@H](O[C@H]2[C@H](O)[C@@H](O[C@H]3O[C@H](CO)[C@@H](O)[C@H](N)[C@H]3O)[C@H](N)C[C@@H]2N)O1` [Glucarolactam salt of dibekacin, Salt of dibekacin and D-glucaro-1,5-lactam], in the data set with Male Hartley guinea pigs [2], the “Number of guinea pigs which lost pinna reflex 10days” value is given as 0/6, the “Number of guinea pigs which lost pinna reflex 14days” value is listed as 0/6, the “Number of guinea pigs which lost pinna reflex 17days” value is listed as 0/6 and the “Number of guinea pigs which lost pinna reflex 21days” value is listed as 3/6. For the same compound, in the data set with Male Hartley guinea pigs [2], the “Number died/ Number tested” value is 0/6 and the BUN was found to be 35.7 ± 13.3 mg/dL. Also, in data set [3], the “Percentage Survival (%) Dosage 0.0625 mg” value was determined as 0%, the “Percentage Survival (%) Dosage 0.25 mg” value is given as 20%, the “Percentage Survival (%) Dosage 1 mg” value worked out at 100% and the ED50 is 19.1 mg/kg. In addition, in data set [4], the “solubility in ethanol, acetone” value is “very slightly soluble”; the solubility in methanol entry is on record as “sparingly soluble”; the solubility in water entry is reported as “freely soluble”.
Take `NC[C@H]1O[C@H](O[C@H]2[C@H](O)[C@@H](O[C@H]3O[C@H](CO)[C@@H](O)[C@H](N)[C@H]3O)[C@H](N)C[C@@H]2N)[C@H](O)[C@@H](O)[C@@H]1O` [Glucarolactam salt of kanamycin, Salt of kanamycin A and D-glucaro-1,5-lactam]: the “Number died/ Number tested” value with Male Hartley guinea pigs [5] is on record as 0/6. For the same compound, in data set [4], the “solubility in ethanol, acetone” value was “very slightly soluble”; the solubility in water entry is listed as “freely soluble”.
On to `NC[C@H]1O[C@H](O[C@H]2[C@H](O)[C@@H](O[C@H]3O[C@H](CO)[C@@H](O)[C@H](N)[C@H]3O)[C@H](N)C[C@@H]2N)[C@H](O)[C@@H](O)[C@@H]1O` [Kanamycin sulfate, kanamycin A sulfate, reference compound], for which the “Number died/ Number tested” value with Male Hartley guinea pigs [5] was 0/6.
As to `NCC1OC(OC2C(N)CC(N)C(OC3OC(CO)C(O)C(N)C3O)C2O)C(N)CC1O` (stereo not shown) [Tobramycin sulfate, tobramycin sulfate], in the data set on Male Hartley guinea pigs [1] (setting [11]), the “Pinna Reflex Dull” value is 2/9 and the “Pinna Reflex Normal” value is given as 7/9. Besides, in the data set on Male Hartley guinea pigs [1] (120 mg (as a free base)/kg/day, 16 consecutive days), the “Number died/ Number tested” value is recorded as 0/9.
Turning to “Salt of gentamicin and D-glucaro-1,5-lactam [Glucarolactam salt of gentamicin]”, in the data set with Male Hartley guinea pigs [6], the “Pinna Reflex Dull” value is reported as 2/6 and the “Pinna Reflex Normal” value was 3/6. The “Pinna Reflex Lost” value in the data set on Male Hartley guinea pigs [6] (* including one guinea pig dead on the 21th day) is 1/6. Moreover, in the data set with Male Hartley guinea pigs [7] (14 days), the CRE is reported as 1.20±0.51 and the BUN turned out to be 64.6 ± 43.97 mg/dL. The “Number died/ Number tested” value with Male Hartley guinea pigs [7] (guinea pigs, intramuscular) is 2/9. Also, in the data set with Male Hartley guinea pigs [7] (setting [12]), the “Pinna Reflex Lost” value is given as 1/7 and the “Pinna Reflex Normal” value is 6/7. Moreover, the “pH of an aqueous solution of the salt” value in data set [8] is reported as 6.7. Further, in data set [4], the “solubility in ethanol, acetone” value is “very slightly soluble”; the solubility in methanol entry is “sparingly soluble”; the solubility in water entry was “freely soluble”.
Turning to gentamicin sulfate [reference compound], in the data set on Male Hartley guinea pigs [7] (14 days), the CRE stood at 1.80±0.57 and the BUN turned out to be 92.3 ± 50.42 mg/dL. Further, the “Number died/ Number tested” value in the data set with Male Hartley guinea pigs [7] (guinea pigs, intramuscular) is given as 7/9. In addition, in the data set on Male Hartley guinea pigs [7] (setting [12]), the “Pinna Reflex Dull” value is recorded as 2/5 and the “Pinna Reflex Lost” value is given as 3/5.
